According to US5599925A, “Penam derivatives” (Otsuka Kagaku Kabushiki Kaisha, priority 1991, dated 1997):
In brackets after ≈: the same amount, converted by molar mass.

What was measured:
Assay in all cases: in vitro antibacterial potency test, doubling dilution agar plate method
Assay type in all cases: cell-based
[1] = system: Escherichia coli NIHJ-JC2; conditions: NIHJJC2, 20 hours at 37° C., inoculum 0.005 ml of ca. 10^8 /ml, read-out: minimal inhibitory concentration (MIC)
Experimental: (§1) Using compound (1a-i), an in vitro antibacterial potency test was performed by the doubling dilution agar plate method. Each test strain was cultured in a sensitivity assay bouillon for 20 hours and 0.005 ml of the culture (viable cell count: ca. 10^8 /ml) was inoculated on a sensitivity assay agar medium containing a varying concentration of the antibacterial compound.
(§2) After 20 hours of incubation at 37° C., the minimal inhibitory concentration (MIC) was determined and expressed in units of μg/ml.

Proteus vulgaris = conditions: 20 hours at 37° C., inoculum 0.005 ml of ca. 10^8 /ml, read-out: minimal inhibitory concentration (MIC)
Experimental: as §1, §2

Pseudomonas aeruginosa = conditions: 20 hours at 37° C., inoculum 0.005 ml of ca. 10^8 /ml, read-out: minimal inhibitory concentration (MIC)
Experimental: as §1, §2

Serratia marcescens = conditions: 20 hours at 37° C., inoculum 0.005 ml of ca. 10^8 /ml, read-out: minimal inhibitory concentration (MIC)
Experimental: as §1, §2

[2] = system: Staphylococcus aureus 209P; conditions: 20 hours at 37° C., inoculum 0.005 ml of ca. 10^8 /ml, read-out: minimal inhibitory concentration (MIC)
Experimental: as §1, §2

[3] = system: Staphylococcus aureus, methicillin-resistant; conditions: 20 hours at 37° C., inoculum 0.005 ml of ca. 10^8 /ml, read-out: minimal inhibitory concentration (MIC)
Experimental: as §1, §2

COC(=O)CCSCC1SC2C(NC(=O)Cc3ccccc3)C(=O)N2C1C(=O)O (stereo not drawn) [compound (1a-i)]
MIC [1]: 12.5 µg/mL (≈ 28.5 µM) | MIC (Proteus vulgaris): 0.39 µg/mL (≈ 0.889 µM) | MIC (Pseudomonas aeruginosa): 100 µg/mL (≈ 228 µM) | MIC (Serratia marcescens): 12.5 µg/mL (≈ 28.5 µM) | MIC [2]: 0.1 µg/mL (≈ 0.228 µM) | MIC [3]: 100 µg/mL (≈ 228 µM)
